# System: MV-4-11 cells
# Experiment: Gene expression microarray analysis (Affymetrix PrimeView) and GSEA
# Assay type: cell-based, human
# Parameters: RFU PODN (11730768_x_at) / Fold change /veh PODN (11730768_x_at) / RFU LINC00158 (11744669_a_at) / Fold change /veh LINC00158 (11744669_a_at) / RFU DUSP10 (11751237_a_at) / Fold change /veh DUSP10 (11751237_a_at) / RFU ID3 (11757404_x_at) / Fold change /veh ID3 (11757404_x_at) / RFU PLEKHG5 (11737974_s_at) / Fold change /veh PLEKHG5 (11737974_s_at) / RFU LRRC4B (11730491_at) / Fold change /veh LRRC4B (11730491_at) / RFU GIMAP4 (11747438_a_at) / Fold change /veh GIMAP4 (11747438_a_at) / RFU KRT8 (11758183_x_at) / Fold change /veh KRT8 (11758183_x_at) / RFU CNN1 (11734310_a_at) / Fold change /veh CNN1 (11734310_a_at) / RFU VPS37D (11726825_at) / Fold change /veh VPS37D (11726825_at) / RFU C10orf10 (11716522_x_at) / Fold change /veh C10orf10 (11716522_x_at) / RFU KIR2DL2 /// KIR2DL4 /// KIR2DL5A /// KIR2DL5B /// KIR2DS1 /// KIR2DS2 /// KIR2DS3 /// KIR2DS4 /// KIR3DL3 /// KIR3DL3 /// KIR3DS1 (11738374_at) / Fold change /veh KIR2DL2 /// KIR2DL4 /// KIR2DL5A /// KIR2DL5B /// KIR2DS1 /// KIR2DS2 /// KIR2DS3 /// KIR2DS4 /// KIR3DL3 /// KIR3DL3 /// KIR3DS1 (11738374_at) / RFU C1QL1 (11718748_at) / Fold change /veh C1QL1 (11718748_at) / RFU TMPRSS4 (11747572_a_at) / Fold change /veh TMPRSS4 (11747572_a_at) / RFU HAMP (11756126_x_at) / Fold change /veh HAMP (11756126_x_at) / RFU RNFT2 (11725882_a_at) / Fold change /veh RNFT2 (11725882_a_at) / RFU NR4A2 (11747474_a_at) / Fold change /veh NR4A2 (11747474_a_at) / RFU ABCC12 (11746883_a_at) / Fold change /veh ABCC12 (11746883_a_at) / RFU TMEM136 (11760407_x_at) / Fold change /veh TMEM136 (11760407_x_at) / RFU CLDN22 /// WWC2 (11732394_at) / Fold change /veh CLDN22 /// WWC2 (11732394_at) / RFU HLA-DPB1 (11760878_x_at) / Fold change /veh HLA-DPB1 (11760878_x_at) / RFU SPINT1 (11716480_a_at) / Fold change /veh SPINT1 (11716480_a_at) / RFU GAP43 (11754022_s_at) / Fold change /veh GAP43 (11754022_s_at) / RFU A4GNT (11735810_at) / Fold change /veh A4GNT (11735810_at) / RFU PRB3 (11715151_x_at) / Fold change /veh PRB3 (11715151_x_at) / RFU TUBB4B (11761932_at) / Fold change /veh TUBB4B (11761932_at) / RFU CAPN14 (11732068_a_at) / Fold change /veh CAPN14 (11732068_a_at) / RFU TMCC2 (11721928_a_at) / Fold change /veh TMCC2 (11721928_a_at) / RFU IRGQ (11745062_a_at) / Fold change /veh IRGQ (11745062_a_at) / RFU FAM174B (11720279_a_at) / Fold change /veh FAM174B (11720279_a_at) / RFU TMPRSS4 (11748680_a_at) / Fold change /veh TMPRSS4 (11748680_a_at) / RFU FAM212B (11763350_a_at) / Fold change /veh FAM212B (11763350_a_at) / RFU PLEKHG5 (11743358_a_at) / Fold change /veh PLEKHG5 (11743358_a_at) / RFU ZSCAN30 (11745921_a_at) / Fold change /veh ZSCAN30 (11745921_a_at) / RFU CMKLR1 (11741424_a_at) / Fold change /veh CMKLR1 (11741424_a_at) / RFU LOC101060620 /// MAPK8IP1 (11723275_at) / Fold change /veh LOC101060620 /// MAPK8IP1 (11723275_at) / RFU SPTSSB (11747773_x_at) / Fold change /veh SPTSSB (11747773_x_at) / RFU PRSS12 (11739890_at) / Fold change /veh PRSS12 (11739890_at) / RFU BIN1 (11741810_x_at) / Fold change /veh BIN1 (11741810_x_at) / RFU WNT11 (11732464_a_at) / Fold change /veh WNT11 (11732464_a_at) / RFU C10orf10 (11716521_a_at) / Fold change /veh C10orf10 (11716521_a_at) / RFU C5orf56 (11738089_at) / Fold change /veh C5orf56 (11738089_at) / RFU CYB561 (11721691_x_at) / Fold change /veh CYB561 (11721691_x_at) / RFU ANKRD19P (11752326_a_at) / Fold change /veh ANKRD19P (11752326_a_at) / RFU OR2T12 /// OR2T33 /// OR2T8 (11738714_s_at) / Fold change /veh OR2T12 /// OR2T33 /// OR2T8 (11738714_s_at) / RFU VCAN (11748164_a_at) / Fold change /veh VCAN (11748164_a_at) / RFU JSRP1 (11732532_at) / Fold change /veh JSRP1 (11732532_at) / RFU KRTAP10-11 (11738290_x_at) / Fold change /veh KRTAP10-11 (11738290_x_at) / RFU MYO3A (11730013_a_at) / Fold change /veh MYO3A (11730013_a_at) / RFU EBF3 (11725865_a_at) / Fold change /veh EBF3 (11725865_a_at) / RFU CAMK2N1 (11719241_x_at) / Fold change /veh CAMK2N1 (11719241_x_at) / RFU C5orf56 (11738088_a_at) / Fold change /veh C5orf56 (11738088_a_at) / RFU OLFML3 (11715873_a_at) / Fold change /veh OLFML3 (11715873_a_at) / RFU LOC100653217 /// NTM (11731650_a_at) / Fold change /veh LOC100653217 /// NTM (11731650_a_at) / RFU MAPK11 (11762145_a_at) / Fold change /veh MAPK11 (11762145_a_at) / RFU FIZ1 (11724087_x_at) / Fold change /veh FIZ1 (11724087_x_at) / RFU OASL (11726364_x_at) / Fold change /veh OASL (11726364_x_at) / RFU SOX15 (11748057_x_at) / Fold change /veh SOX15 (11748057_x_at) / RFU CD79A (11719716_a_at) / Fold change /veh CD79A (11719716_a_at) / RFU HIST1H1D (11736915_at) / Fold change /veh HIST1H1D (11736915_at) / RFU CASKIN2 (11723855_a_at) / Fold change /veh CASKIN2 (11723855_a_at) / RFU LOC730098 (11760151_x_at) / Fold change /veh LOC730098 (11760151_x_at) / RFU OR4N2 (11742367_at) / Fold change /veh OR4N2 (11742367_at) / RFU PRRT2 (11749266_a_at) / Fold change /veh PRRT2 (11749266_a_at) / RFU SNX32 (11753110_a_at) / Fold change /veh SNX32 (11753110_a_at) / RFU CDHR5 (11726645_a_at) / Fold change /veh CDHR5 (11726645_a_at) / RFU RCAN1 (11760418_a_at) / Fold change /veh RCAN1 (11760418_a_at) / RFU FAM167A (11723789_a_at) / Fold change /veh FAM167A (11723789_a_at) / RFU FAM26E (11764081_at) / Fold change /veh FAM26E (11764081_at) / RFU ISYNA1 (11749810_s_at) / Fold change /veh ISYNA1 (11749810_s_at) / RFU ACY1 (11761880_at) / Fold change /veh ACY1 (11761880_at) / RFU 11764098_at / Fold change /veh 11764098_at / RFU SAMD14 (11745864_x_at) / Fold change /veh SAMD14 (11745864_x_at) / RFU NPB (11741838_a_at) / Fold change /veh NPB (11741838_a_at) / RFU TMPRSS6 (11731388_a_at) / Fold change /veh TMPRSS6 (11731388_a_at) / RFU KRTAP10-2 (11738614_at) / Fold change /veh KRTAP10-2 (11738614_at) / RFU ARHGAP8 /// PRR5-ARHGAP8 (11727945_x_at) / Fold change /veh ARHGAP8 /// PRR5-ARHGAP8 (11727945_x_at) / RFU KRTAP5-7 /// NADSYN1 (11734609_at) / Fold change /veh KRTAP5-7 /// NADSYN1 (11734609_at) / RFU RASL12 (11751679_a_at) / Fold change /veh RASL12 (11751679_a_at) / RFU CDKN2B (11736163_a_at) / Fold change /veh CDKN2B (11736163_a_at) / RFU PRF1 (11729649_at) / Fold change /veh PRF1 (11729649_at) / RFU, ZNF638 /// ZNF638-IT1 / Fold change vs veh, ZNF638 /// ZNF638-IT1 / RFU, PANK3 / Fold change vs veh, PANK3 / RFU, SH3YL1 / Fold change vs veh, SH3YL1 / RFU, ZEB2 / Fold change vs veh, ZEB2 / RFU, NRIP1 / Fold change vs veh, NRIP1 / RFU, PTTG1IP / Fold change vs veh, PTTG1IP / RFU, CAPN2 / Fold change vs veh, CAPN2 / RFU, MED14 / Fold change vs veh, MED14 / RFU, SNORA58 / Fold change vs veh, SNORA58 / RFU, C1orf63 / Fold change vs veh, C1orf63 / RFU, LRRFIP1 / Fold change vs veh, LRRFIP1 / RFU, NDUFAF7 / Fold change vs veh, NDUFAF7 / RFU, SLC12A2 / Fold change vs veh, SLC12A2 / RFU, IBTK / Fold change vs veh, IBTK / RFU, ESF1 / Fold change vs veh, ESF1 / Fold change vs veh, TMEM50B / RFU, TAOK1 / Fold change vs veh, TAOK1 / RFU, ACBD3 / Fold change vs veh, ACBD3 / RFU, TMA16 / Fold change vs veh, TMA16 / RFU, RWDD3 / Fold change vs veh, RWDD3 / RFU, BCAT1 / Fold change vs veh, BCAT1 / RFU, EDEM3 / Fold change vs veh, EDEM3 / RFU, TMEM33 / Fold change vs veh, TMEM33 / RFU, WDR75 / Fold change vs veh, WDR75 / RFU, AHCTF1 / Fold change vs veh, AHCTF1 / RFU, TFRC / Fold change vs veh, TFRC / RFU, ZDHHC17 / Fold change vs veh, ZDHHC17 / RFU, NOM1 / Fold change vs veh, NOM1 / RFU, ARL8B / Fold change vs veh, ARL8B / RFU, ZBTB11 / Fold change vs veh, ZBTB11 / RFU, TAMM41 / Fold change vs veh, TAMM41 / RFU, KIAA1704 /// LOC100996395 / Fold change vs veh, KIAA1704 /// LOC100996395 / RFU, ING1 / Fold change vs veh, ING1 / RFU, TRMT61B / Fold change vs veh, TRMT61B / RFU, FUBP3 / Fold change vs veh, FUBP3 / RFU, TP53 / Fold change vs veh, TP53 / RFU, TNKS2 / Fold change vs veh, TNKS2 / RFU, ZFP14 / Fold change vs veh, ZFP14 / RFU, ACTR2 / Fold change vs veh, ACTR2 / RFU, PPP3R1 / Fold change vs veh, PPP3R1 / RFU, PIK3R1 / Fold change vs veh, PIK3R1 / RFU, HNRNPA1 / Fold change vs veh, HNRNPA1 / RFU, RNF170 / Fold change vs veh, RNF170 / RFU, ZNF28 / Fold change vs veh, ZNF28 / RFU, RNGTT / Fold change vs veh, RNGTT / RFU, OGT / Fold change vs veh, OGT / RFU, BRD1 / Fold change vs veh, BRD1 / RFU, MARS / Fold change vs veh, MARS / RFU, ZNF655 / Fold change vs veh, ZNF655 / RFU, FAHD1 / Fold change vs veh, FAHD1 / RFU, BDP1 / Fold change vs veh, BDP1 / RFU, LRRCC1 / Fold change vs veh, LRRCC1 / RFU, ARID1A / Fold change vs veh, ARID1A / RFU, ZNF146 / Fold change vs veh, ZNF146 / RFU, ZNF330 / Fold change vs veh, ZNF330 / RFU, GPN3 / Fold change vs veh, GPN3 / RFU, C9orf123 / Fold change vs veh, C9orf123 / RFU, N4BP2L2 / Fold change vs veh, N4BP2L2 / RFU, ARFIP1 / Fold change vs veh, ARFIP1 / RFU, FAM179B / Fold change vs veh, FAM179B / RFU, BCL10 / Fold change vs veh, BCL10 / RFU, UHRF1BP1L / Fold change vs veh, UHRF1BP1L / RFU, BET1 / Fold change vs veh, BET1 / RFU, CNOT2 / Fold change vs veh, CNOT2 / RFU, ZNF268 / Fold change vs veh, ZNF268 / Fold change vs veh, ZNF507 / RFU, DGCR2 / Fold change vs veh, DGCR2 / RFU, WDSUB1 / Fold change vs veh, WDSUB1 / Fold change vs veh, HSP90B1 /// MIR3652 / RFU, ADSS / Fold change vs veh, ADSS / RFU, GK / Fold change vs veh, GK / RFU, ZNF148 / Fold change vs veh, ZNF148 / RFU, TAF9 / Fold change vs veh, TAF9 / RFU, SLC1A5 / Fold change vs veh, SLC1A5 / RFU, SLMO2 / Fold change vs veh, SLMO2 / RFU, ABCC4 / Fold change vs veh, ABCC4 / RFU, LOC101060439 /// RAP1B / Fold change vs veh, LOC101060439 /// RAP1B / RFU, RFX7 / Fold change vs veh, RFX7 / RFU, GTPBP10 / Fold change vs veh, GTPBP10 / RFU, CNEP1R1 / Fold change vs veh, CNEP1R1 / RFU, BIVM-ERCC5 /// ERCC5 / Fold change vs veh, BIVM-ERCC5 /// ERCC5 / RFU, ILF3 / Fold change vs veh, ILF3 / RFU 11762660_at / Fold change /veh 11762660_at / RFU VCAN (11757783_s_at) / Fold change /veh VCAN (11757783_s_at) / RFU DDX43 (11728927_at) / Fold change /veh DDX43 (11728927_at) / RFU KRT8 (11758188_x_at) / Fold change /veh KRT8 (11758188_x_at) / RFU NKD1 (11759106_at) / Fold change /veh NKD1 (11759106_at) / RFU SRD5A1 (11742802_a_at) / Fold change /veh SRD5A1 (11742802_a_at) / RFU TPSAB1 /// TPSB2 (11721975_s_at) / Fold change /veh TPSAB1 /// TPSB2 (11721975_s_at) / RFU GSTM3 (11746129_a_at) / Fold change /veh GSTM3 (11746129_a_at) / RFU IL23R (11737362_x_at) / Fold change /veh IL23R (11737362_x_at) / RFU TMEM51 (11727254_a_at) / Fold change /veh TMEM51 (11727254_a_at) / RFU PIWIL2 (11732686_x_at) / Fold change /veh PIWIL2 (11732686_x_at) / RFU ORM1 (11744905_x_at) / Fold change /veh ORM1 (11744905_x_at) / RFU CCDC152 (11743942_at) / Fold change /veh CCDC152 (11743942_at) / RFU ECM1 (11717891_a_at) / Fold change /veh ECM1 (11717891_a_at) / RFU IL23R (11748794_a_at) / Fold change /veh IL23R (11748794_a_at) / RFU TNFAIP8L3 (11732012_x_at) / Fold change /veh TNFAIP8L3 (11732012_x_at) / RFU MBOAT4 (11741988_at) / Fold change /veh MBOAT4 (11741988_at) / RFU 11764193_at / Fold change /veh 11764193_at / RFU TMEM53 (11763286_at) / Fold change /veh TMEM53 (11763286_at) / RFU MAGEB2 (11727129_at) / Fold change /veh MAGEB2 (11727129_at) / RFU TMEM200A (11744735_a_at) / Fold change /veh TMEM200A (11744735_a_at) / RFU CCDC152 (11751479_a_at) / Fold change /veh CCDC152 (11751479_a_at) / RFU FAM211A (11726209_a_at) / Fold change /veh FAM211A (11726209_a_at) / RFU RGS16 (11746705_a_at) / Fold change /veh RGS16 (11746705_a_at) / RFU VCAN (11755009_s_at) / Fold change /veh VCAN (11755009_s_at) / RFU RHOB (11743442_s_at) / Fold change /veh RHOB (11743442_s_at) / RFU RGS16 (11720943_a_at) / Fold change /veh RGS16 (11720943_a_at) / RFU RGS16 (11720944_at) / Fold change /veh RGS16 (11720944_at) / RFU, VPS4B / Fold change vs veh, VPS4B / RFU, CREB1 / Fold change vs veh, CREB1 / RFU, DNAJC13 / Fold change vs veh, DNAJC13 / RFU, GNAQ / Fold change vs veh, GNAQ / RFU, CDK5R1 / Fold change vs veh, CDK5R1 / RFU, ZRANB3 / Fold change vs veh, ZRANB3 / RFU, CUL4A / Fold change vs veh, CUL4A / RFU, CCNY / Fold change vs veh, CCNY / RFU, UFL1 / Fold change vs veh, UFL1 / RFU, COG3 / Fold change vs veh, COG3 / RFU, DIAPH2 / Fold change vs veh, DIAPH2 / RFU, SKA2 / Fold change vs veh, SKA2 / RFU, AFF3 / Fold change vs veh, AFF3 / RFU, LMF1 / Fold change vs veh, LMF1 / RFU, IPO11 / Fold change vs veh, IPO11 / RFU, DFFB / Fold change vs veh, DFFB / RFU, FOXP1 / Fold change vs veh, FOXP1 / RFU, CARD8 / Fold change vs veh, CARD8 / RFU, STRN3 / Fold change vs veh, STRN3 / RFU, ADK / Fold change vs veh, ADK / RFU, RASSF2 / Fold change vs veh, RASSF2 / RFU, WIPF1 / Fold change vs veh, WIPF1 / RFU, LARP1B / Fold change vs veh, LARP1B / RFU, RASA1 / Fold change vs veh, RASA1 / RFU, RB1 / Fold change vs veh, RB1 / RFU, PPFIA1 / Fold change vs veh, PPFIA1 / RFU, MAT2A / Fold change vs veh, MAT2A / RFU, CCT5 / Fold change vs veh, CCT5 / RFU, WDR92 / Fold change vs veh, WDR92 / RFU, CUX1 / Fold change vs veh, CUX1 / RFU, TTC7A / Fold change vs veh, TTC7A / RFU, TMEM135 / Fold change vs veh, TMEM135 / RFU, DEPTOR / Fold change vs veh, DEPTOR / RFU, CPM / Fold change vs veh, CPM / RFU, DNAJB6 / Fold change vs veh, DNAJB6 / RFU, CACNA2D3 / Fold change vs veh, CACNA2D3 / RFU, DTX4 / Fold change vs veh, DTX4 / RFU, TFCP2 / Fold change vs veh, TFCP2 / RFU, GMCL1 /// GMCL1P1 / Fold change vs veh, GMCL1 /// GMCL1P1 / RFU, AEBP2 / Fold change vs veh, AEBP2 / RFU, SNHG1 /// SNORD22 /// SNORD25 /// SNORD26 /// SNORD27 /// SNORD28 /// SNORD29 /// SNORD31 / Fold change vs veh, SNHG1 /// SNORD22 /// SNORD25 /// SNORD26 /// SNORD27 /// SNORD28 /// SNORD29 /// SNORD31 / Fold change (Aza/veh), C12orf56 (ProbeSet 11735607_a_at) / Fold change (ACY-1035/veh), C12orf56 (ProbeSet 11735607_a_at) / Fold change (Aza/veh), FGFR1OP (ProbeSet 11751329_s_at) / Fold change (ACY-1035/veh), FGFR1OP (ProbeSet 11751329_s_at) / Fold change (Aza/veh), VPS36 (ProbeSet 11739960_a_at) / Fold change (ACY-1035/veh), VPS36 (ProbeSet 11739960_a_at) / RFU SYPL1 (11715823_x_at) / Fold change /veh SYPL1 (11715823_x_at) / RFU IGFBP7 (11715501_s_at) / Fold change /veh IGFBP7 (11715501_s_at) / RFU REEP3 (11722064_at) / Fold change /veh REEP3 (11722064_at) / RFU IGLL1 (11728026_x_at) / Fold change /veh IGLL1 (11728026_x_at): dose or concentration left out as unconfirmed
# Settings: MV-4-11 cells, 48 hours
structure (smiles),measurement,value
Nc1ccc(-c2cccs2)cc1NC(=O)c1ccc2c(c1)cc(C1CC1)n2CCN1CCOCC1 [ACY-1035],RFU NPB (11741838_a_at),77.64 RFU
